# Results: patent US8748458B2, “Scriptaid isosteres and their use in therapy” (Karus Therapeutics Limited, priority 2009, dated 2014)
# Key:
# [1] = tested on: Total HDAC (HeLa Nuclear Extracts); assay: Total HDAC inhibition (HeLa nuclear extracts); assay type: biochemical
# [2] = tested on: MCF7 Breast Tumour Cell; assay: MCF7 Breast Tumour Cell Proliferation Inhibition; assay type: cell-based; details: Homo sapiens; MCF7 cells
# [3] = biological target: HDAC4 (Homo sapiens (Human), UniProt P56524); assay: HDAC4 inhibition; assay type: biochemical
# Chain of HDAC4 (P56524 whole entry, species assumed): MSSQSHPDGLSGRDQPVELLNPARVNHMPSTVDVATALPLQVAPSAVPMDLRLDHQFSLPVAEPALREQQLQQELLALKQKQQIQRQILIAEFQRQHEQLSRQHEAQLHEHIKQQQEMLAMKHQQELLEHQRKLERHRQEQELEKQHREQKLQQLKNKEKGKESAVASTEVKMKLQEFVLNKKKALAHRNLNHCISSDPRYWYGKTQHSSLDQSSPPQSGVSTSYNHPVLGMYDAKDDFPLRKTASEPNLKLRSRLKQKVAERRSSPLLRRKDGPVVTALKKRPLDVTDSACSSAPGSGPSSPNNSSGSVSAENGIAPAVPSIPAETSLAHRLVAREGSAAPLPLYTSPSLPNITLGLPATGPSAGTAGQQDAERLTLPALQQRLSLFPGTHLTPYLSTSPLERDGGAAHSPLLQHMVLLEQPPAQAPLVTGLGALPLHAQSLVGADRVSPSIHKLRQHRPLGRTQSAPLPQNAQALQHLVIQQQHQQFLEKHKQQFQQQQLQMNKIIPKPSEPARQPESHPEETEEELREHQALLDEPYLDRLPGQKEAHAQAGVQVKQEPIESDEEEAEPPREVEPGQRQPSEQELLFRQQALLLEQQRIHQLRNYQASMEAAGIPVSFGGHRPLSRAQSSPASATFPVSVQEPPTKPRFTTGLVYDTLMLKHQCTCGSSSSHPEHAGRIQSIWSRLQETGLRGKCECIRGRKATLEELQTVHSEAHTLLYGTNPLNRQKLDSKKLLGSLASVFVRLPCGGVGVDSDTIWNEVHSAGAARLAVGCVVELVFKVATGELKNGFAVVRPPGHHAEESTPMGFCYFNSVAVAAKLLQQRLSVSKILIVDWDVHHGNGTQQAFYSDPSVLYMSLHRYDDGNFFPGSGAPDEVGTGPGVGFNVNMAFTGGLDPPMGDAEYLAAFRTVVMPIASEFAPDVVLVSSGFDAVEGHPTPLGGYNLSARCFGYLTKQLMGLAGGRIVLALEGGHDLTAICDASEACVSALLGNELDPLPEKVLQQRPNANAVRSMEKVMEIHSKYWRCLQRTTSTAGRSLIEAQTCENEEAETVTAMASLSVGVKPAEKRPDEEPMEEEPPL
# [4] = biological target: HDAC6 (Homo sapiens (Human), UniProt Q9UBN7); assay: HDAC6 inhibition; assay type: biochemical
# Chain of HDAC6 (Q9UBN7 whole entry, species assumed): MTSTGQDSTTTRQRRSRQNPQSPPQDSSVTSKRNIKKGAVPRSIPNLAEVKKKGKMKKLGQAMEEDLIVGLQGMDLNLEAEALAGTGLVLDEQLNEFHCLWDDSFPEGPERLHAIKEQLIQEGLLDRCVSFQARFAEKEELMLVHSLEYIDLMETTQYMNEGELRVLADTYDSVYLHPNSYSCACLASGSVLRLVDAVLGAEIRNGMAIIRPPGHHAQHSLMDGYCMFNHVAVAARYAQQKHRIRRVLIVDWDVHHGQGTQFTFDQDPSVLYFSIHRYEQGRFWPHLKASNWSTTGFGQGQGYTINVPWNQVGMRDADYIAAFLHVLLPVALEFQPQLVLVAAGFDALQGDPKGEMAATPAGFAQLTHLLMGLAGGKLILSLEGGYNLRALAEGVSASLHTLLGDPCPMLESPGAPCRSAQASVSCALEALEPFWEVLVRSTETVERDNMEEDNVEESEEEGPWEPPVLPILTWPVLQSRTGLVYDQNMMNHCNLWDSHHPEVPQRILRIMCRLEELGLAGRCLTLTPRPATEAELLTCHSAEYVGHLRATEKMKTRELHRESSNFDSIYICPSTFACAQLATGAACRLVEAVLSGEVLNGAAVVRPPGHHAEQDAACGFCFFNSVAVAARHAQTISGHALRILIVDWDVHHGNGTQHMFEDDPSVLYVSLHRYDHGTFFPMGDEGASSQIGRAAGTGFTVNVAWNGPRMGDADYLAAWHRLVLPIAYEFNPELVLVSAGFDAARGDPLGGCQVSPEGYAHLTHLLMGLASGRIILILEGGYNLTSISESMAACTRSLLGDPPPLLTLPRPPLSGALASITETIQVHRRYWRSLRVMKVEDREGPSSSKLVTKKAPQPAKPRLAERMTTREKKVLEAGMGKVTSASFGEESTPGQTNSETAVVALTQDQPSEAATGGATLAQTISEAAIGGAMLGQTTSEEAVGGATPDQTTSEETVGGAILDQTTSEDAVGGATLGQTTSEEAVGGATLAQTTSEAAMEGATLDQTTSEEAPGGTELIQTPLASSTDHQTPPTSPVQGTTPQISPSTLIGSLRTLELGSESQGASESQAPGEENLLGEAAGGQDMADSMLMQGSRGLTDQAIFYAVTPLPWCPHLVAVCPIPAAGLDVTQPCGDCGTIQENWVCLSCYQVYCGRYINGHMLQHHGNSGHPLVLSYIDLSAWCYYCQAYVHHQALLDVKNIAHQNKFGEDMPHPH
# [5] = biological target: HDAC3 (Homo sapiens (Human), UniProt O15379); assay: HDAC3 inhibition; assay type: biochemical
# Chain of HDAC3 (O15379 whole entry, species assumed): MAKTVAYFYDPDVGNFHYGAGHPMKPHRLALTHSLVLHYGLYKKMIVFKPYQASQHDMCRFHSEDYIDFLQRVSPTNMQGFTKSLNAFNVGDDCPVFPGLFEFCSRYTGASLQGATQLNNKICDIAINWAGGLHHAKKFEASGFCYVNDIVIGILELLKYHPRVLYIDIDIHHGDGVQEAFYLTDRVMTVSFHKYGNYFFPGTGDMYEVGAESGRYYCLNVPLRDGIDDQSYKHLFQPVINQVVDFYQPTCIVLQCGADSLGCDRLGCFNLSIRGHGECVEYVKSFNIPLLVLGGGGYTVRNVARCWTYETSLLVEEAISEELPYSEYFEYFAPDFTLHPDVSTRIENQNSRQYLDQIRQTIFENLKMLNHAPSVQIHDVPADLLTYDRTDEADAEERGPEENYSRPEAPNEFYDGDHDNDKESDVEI
# Chain of HDAC3 (Q9Y618 395-489 partner, species assumed): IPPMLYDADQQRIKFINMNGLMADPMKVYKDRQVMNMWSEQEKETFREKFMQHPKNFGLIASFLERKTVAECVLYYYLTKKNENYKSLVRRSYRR
# [6] = biological target: HDAC2 (Homo sapiens (Human), UniProt Q92769); assay: HDAC2 inhibition; assay type: biochemical
# Chain of HDAC2 (Q92769 whole entry, species assumed): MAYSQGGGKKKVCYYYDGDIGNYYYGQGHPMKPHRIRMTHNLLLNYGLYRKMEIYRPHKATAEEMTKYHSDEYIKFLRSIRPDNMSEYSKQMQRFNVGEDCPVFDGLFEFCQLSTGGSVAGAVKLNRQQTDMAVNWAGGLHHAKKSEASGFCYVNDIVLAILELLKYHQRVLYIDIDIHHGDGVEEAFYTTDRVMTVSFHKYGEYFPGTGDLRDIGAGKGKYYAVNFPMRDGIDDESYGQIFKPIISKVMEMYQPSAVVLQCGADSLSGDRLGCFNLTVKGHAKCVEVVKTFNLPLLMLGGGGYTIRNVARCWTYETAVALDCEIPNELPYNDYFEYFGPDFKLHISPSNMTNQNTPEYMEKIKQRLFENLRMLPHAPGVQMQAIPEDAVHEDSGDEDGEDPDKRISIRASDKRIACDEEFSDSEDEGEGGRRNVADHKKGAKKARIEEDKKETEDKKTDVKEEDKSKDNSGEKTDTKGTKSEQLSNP
# [7] = tested on: TNFα; assay: TNFα inhibition (LPS-stimulated human PBMCs); assay type: cell-based; details: PBMC
# [8] = biological target: HDAC1 (Homo sapiens (Human), UniProt Q13547); assay: HDAC1 inhibition; assay type: biochemical
# Chain of HDAC1 (Q13547 whole entry, species assumed): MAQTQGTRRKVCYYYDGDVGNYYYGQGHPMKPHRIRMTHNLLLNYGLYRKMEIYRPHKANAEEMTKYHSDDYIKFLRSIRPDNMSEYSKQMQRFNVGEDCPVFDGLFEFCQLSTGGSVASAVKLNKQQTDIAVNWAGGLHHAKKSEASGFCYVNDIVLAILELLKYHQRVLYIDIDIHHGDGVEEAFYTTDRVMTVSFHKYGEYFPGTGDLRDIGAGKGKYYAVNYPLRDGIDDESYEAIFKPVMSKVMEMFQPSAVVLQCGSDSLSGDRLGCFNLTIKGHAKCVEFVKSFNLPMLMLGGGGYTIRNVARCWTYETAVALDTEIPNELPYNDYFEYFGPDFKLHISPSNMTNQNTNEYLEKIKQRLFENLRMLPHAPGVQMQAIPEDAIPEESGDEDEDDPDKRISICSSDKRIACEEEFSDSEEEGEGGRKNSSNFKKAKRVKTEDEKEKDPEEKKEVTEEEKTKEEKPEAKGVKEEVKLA
# [9] = biological target: HDAC9 (Homo sapiens (Human), UniProt Q9UKV0); assay: HDAC9 inhibition; assay type: biochemical
# Chain of HDAC9 (Q9UKV0 whole entry, species assumed): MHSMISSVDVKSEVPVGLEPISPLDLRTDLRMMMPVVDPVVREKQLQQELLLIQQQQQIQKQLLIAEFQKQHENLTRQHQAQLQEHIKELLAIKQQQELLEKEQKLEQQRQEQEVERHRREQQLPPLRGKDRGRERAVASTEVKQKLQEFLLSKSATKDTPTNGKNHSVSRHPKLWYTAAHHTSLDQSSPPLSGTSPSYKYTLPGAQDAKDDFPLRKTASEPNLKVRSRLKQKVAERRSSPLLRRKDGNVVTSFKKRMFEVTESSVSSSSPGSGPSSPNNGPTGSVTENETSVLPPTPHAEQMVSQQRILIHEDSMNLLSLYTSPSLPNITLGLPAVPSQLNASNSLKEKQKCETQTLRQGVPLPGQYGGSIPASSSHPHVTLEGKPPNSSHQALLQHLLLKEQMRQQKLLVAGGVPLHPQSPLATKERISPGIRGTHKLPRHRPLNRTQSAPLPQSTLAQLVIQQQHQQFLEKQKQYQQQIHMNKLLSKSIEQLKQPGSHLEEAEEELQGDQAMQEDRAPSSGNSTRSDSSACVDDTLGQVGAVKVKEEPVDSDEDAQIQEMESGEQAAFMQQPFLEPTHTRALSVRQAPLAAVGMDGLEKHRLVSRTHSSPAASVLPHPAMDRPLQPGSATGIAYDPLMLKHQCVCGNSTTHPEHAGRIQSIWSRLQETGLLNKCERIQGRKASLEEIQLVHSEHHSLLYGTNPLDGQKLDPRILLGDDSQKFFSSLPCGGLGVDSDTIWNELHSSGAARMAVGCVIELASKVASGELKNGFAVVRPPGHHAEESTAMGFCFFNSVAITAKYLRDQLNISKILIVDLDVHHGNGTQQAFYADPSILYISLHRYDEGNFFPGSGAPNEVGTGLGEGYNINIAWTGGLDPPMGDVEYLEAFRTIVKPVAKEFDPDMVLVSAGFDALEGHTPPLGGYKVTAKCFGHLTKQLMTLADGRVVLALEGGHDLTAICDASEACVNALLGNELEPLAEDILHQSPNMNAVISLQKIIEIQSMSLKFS
# [10] = biological target: HDAC11 (Homo sapiens (Human), UniProt Q96DB2); assay: HDAC11 inhibition; assay type: biochemical
# [11] = biological target: HDAC10 (Homo sapiens (Human), UniProt Q969S8); assay: HDAC10 inhibition; assay type: biochemical
# [12] = biological target: HDAC5 (Homo sapiens (Human), UniProt Q9UQL6); assay: HDAC5 inhibition; assay type: biochemical
# [13] = biological target: HDAC8 (Homo sapiens (Human), UniProt Q9BY41); assay: HDAC8 inhibition; assay type: biochemical
IC50 [1],IC50 [2],IC50 [4],IC50 [8],SMILES,further results
539 nM,–,–,–,"O=C(CCCCCCN(c1cccnc1)c1ccccn1)NO [Example 20, 7-(Pyridin-3-yl-pyridin-2-yl-amino)-heptanoic acid hydroxyamide]",–
521 nM,357 nM,–,–,"O=C(CCCCCCN(c1ccccn1)c1ccc(-c2ccc(F)cc2)cn1)NO [Example 13, 7-((5-(4-Fluorophenyl)pyridin-2-yl)(pyridin-2-yl)amino)-N-hydroxyheptanamide]",–
298 nM,39 nM,–,–,"Nc1ccc(-c2ccnc(N(CCCCCCC(=O)NO)c3ccccn3)c2)cc1 [Example 22, 7-{[4-(4-Amino-phenyl)-pyridin-2-yl]-pyridin-2-yl-amino}-heptanoic acid hydroxyamide]",–
245 nM,–,9 nM,–,"O=C(CCCCCCN(c1ccccn1)c1ccccn1)NO [Example 3, 7-(Dipyridin-2-ylamino)-N-hydroxyheptanamide]",IC50 [3]: 307 nM; IC50 [5]: 710 nM; IC50 [6]: 1540 nM; IC50 [7]: 100 nM
415 nM,–,22 nM,642 nM,"O=C(CCCCCC=C(c1ccccn1)c1ccccn1)NO [Example 5, N-Hydroxy-8,8-di(pyridin-2-yl)oct-7-enamide]",–
1260 nM,411 nM,3 nM,151 nM,"O=C(CCCCCCN(c1ccccn1)c1cc(OCc2ccccc2)ccn1)NO [Example 15, 7-[(4-Benzyloxy-pyridin-2-yl)-pyridin-2-yl-amino]-heptanoic acid hydroxyamide]",IC50 [6]: 612 nM; IC50 [9]: 423 nM
822 nM,574 nM,–,–,"CCCOc1ccnc(N(CCCCCCC(=O)NO)c2ccccn2)c1 [Example 18, 7-[(4-Propoxy-pyridin-2-yl)-pyridin-2-yl-amino]-heptanoic acid hydroxyamide]",–
598 nM,456 nM,–,–,"CCOc1ccnc(N(CCCCCCC(=O)NO)c2ccccn2)c1 [Example 17, 7-[(4-Ethoxy-pyridin-2-yl)-pyridin-2-yl-amino]-heptanoic acid hydroxyamide]",–
1080 nM,210 nM,–,–,"O=C(CCCCCCN(c1ccccn1)c1cc(-c2ccccc2Cl)ccn1)NO [Example 25, 7-{[4-(2-Chloro-phenyl)-pyridin-2-yl]-pyridin-2-yl-amino}-heptanoic acid hydroxyamide]",–
326 nM,478 nM,–,–,"CC(C)Oc1ccnc(N(CCCCCCC(=O)NO)c2ccccn2)c1 [Example 19, 7-[(4-Isopropoxy-pyridin-2-yl)-pyridin-2-yl-amino]heptanoic acid hydroxyamide]",–
950 nM,600 nM,68 nM,158 nM,"O=C(CCCCC=C(c1ccccn1)c1ccccn1)NO [Example 1, N-Hydroxy-7,7-di(pyridin-2-yl)hept-6-enamide]",–
310 nM,81 nM,–,–,"O=C(CCCCCCN(c1ccccn1)c1ccc(-c2ccccc2)cn1)NO [Example 12, N-Hydroxy-7-((5-phenylpyridin-2-yl)(pyridin-2-yl)amino)heptanamide]",–
337 nM,169 nM,2 nM,64 nM,"O=C(CCCCCCN(c1ccccn1)c1cc2ccccc2cn1)NO [Example 14, 7-(Isoquinolin-3-yl-pyridin-2-yl-amino)-heptanoic acid hydroxyamide]",IC50 [6]: 306 nM; IC50 [9]: 145 nM
1070 nM,285 nM,57 nM,182 nM,"O=C(CCCCCCN(c1ccccn1)c1ccc(OCc2ccccc2)cn1)NO [Example 10, 7-((5-(Benzyloxy)pyridin-2-yl)(pyridin-2-yl)amino)-N-hydroxyheptanamide]",–
1680 nM,81 nM,–,–,"Cc1cccc(-c2ccnc(N(CCCCCCC(=O)NO)c3ccccn3)c2)c1 [Example 27, 7-[Pyridin-2-yl-(4-m-tolyl-pyridin-2-yl)-amino]-heptanoic acid hydroxyamide]",–
1080 nM,–,–,–,"O=C(CCCCCCN(c1ccccn1)c1cc(-c2ccc(F)cc2)ccn1)NO [Example 21, 7-{[4-(4-Fluoro-phenyl)-pyridin-2-yl]-pyridin-2-yl-amino}-heptanoic acid hydroxyamide]",–
1060 nM,77 nM,–,–,"Cc1ccc(-c2ccnc(N(CCCCCCC(=O)NO)c3ccccn3)c2)cc1 [Example 23, 7-[Pyridin-2-yl-(4-p-tolyl-pyridin-2-yl)-amino]-heptanoic acid hydroxyamide]",–
–,200 nM,–,–,"O=C(CCCCCCN(c1ccccn1)c1cc(-c2ccccc2F)ccn1)NO [Example 26, 7-{[4-(2-Fluoro-phenyl)-pyridin-2-yl]-pyridin-2-yl-amino}-heptanoic acid hydroxyamide]",–
337 nM,697 nM,31 nM,453 nM,"Cc1ccc(N(CCCCCCC(=O)NO)c2ccccn2)nc1 [Example 9, N-Hydroxy-7-((5-methylpyridin-2-yl)(pyridin-2-yl)amino)heptanamide]",IC50 [6]: 1140 nM; IC50 [9]: 759 nM
–,445 nM,–,–,O=C(CCCCCCC(c1ccccn1)c1ccccn1)NO [Example 6],–
1080 nM,1090 nM,–,–,"COc1ccnc(N(CCCCCCC(=O)NO)c2ccccn2)c1 [Example 16, 7-[(4-Methoxy-pyridin-2-yl)-pyridin-2-yl-amino]-heptanoic acid hydroxyamide]",–
81 nM,–,16 nM,71 nM,"O=C(CCCCCCN(c1ccccn1)c1ccc2ccccc2n1)NO [Example 4, N-Hydroxy-7-(pyridin-2-yl(quinolin-2-yl)amino)heptanamide]",IC50 [3]: 545 nM; IC50 [10]: 112 nM; IC50 [11]: 126 nM; IC50 [5]: 62 nM; IC50 [6]: 212 nM; IC50 [12]: 123 nM; IC50 [9]: 90 nM; IC50 [13]: 312 nM
493 nM,1050 nM,19 nM,116 nM,"O=C(CCCCCCN(c1ccccn1)c1cc(-c2ccccc2)ccn1)NO [Example 8, N-Hydroxy-7-((4-phenylpyridin-2-yl)(pyridin-2-yl)amino)heptanamide]",–
1620 nM,200 nM,–,–,"Cc1ccccc1-c1ccnc(N(CCCCCCC(=O)NO)c2ccccn2)c1 [Example 24, 7-[Pyridin-2-yl-(4-o-tolyl-pyridin-2-yl)-amino]-heptanoic acid hydroxyamide]",–
778 nM,448 nM,–,–,"Cc1ccnc(N(CCCCCCC(=O)NO)c2ccccn2)c1 [Example 7, N-Hydroxy-7-((4-methylpyridin-2-yl)(pyridin-2-yl)amino)heptanamide]",–
2490 nM,2340 nM,–,–,"O=C(CCCCCN(c1ccccn1)c1ccccn1)NO [Example 2, 6-(Dipyridin-2-ylamino)-N-hydroxyhexanamide]",–
406 nM,292 nM,13 nM,182 nM,"COc1ccc(N(CCCCCCC(=O)NO)c2ccccn2)nc1 [Example 11, N-Hydroxy-7-((5-methoxypyridin-2-yl)(pyridin-2-yl)amino)heptanamide]",IC50 [6]: 883 nM; IC50 [9]: 759 nM
